Results reported in patent US6750348B1, “Chemokine receptor binding heterocyclic compounds” (AnorMED, Inc., priority 1999, dated 2004).
Like-named read-outs stand apart in the source and are kept apart here. Values belong to the compound of their own block, whether it stands above or below them.

What was measured:
[1] = tested on: SDF-1α induced Ca flux in SUP-T1 cells; test: Inhibition of SDF-1α induced Ca flux in SUP-T1 cells (FLIPR); type: cell-based; details: Homo sapiens, read-out: inhibited SDF-1α induced Ca flux; for inhibition at 20 µg/mL: at 20 μg/mL
Method: Loading dye: Fluo-3, AM (Molecular Probes F-1241) is dissolved in anhydrous DMSO and stored frozen in aliquots. To increase the solubility of the dye in the loading medium, 10% (w/v) pluronic acid (Molecular Probes F-127) is added to the Fluo-3 stock solution immediately before use.
HBSS+20 mM Hepes buffer+0.2% BSA, pH 7.4. HBSS 10× [(w/o phenol red and sodium bicarbonate (Gibco 14 065-049)]; Hepes buffer 1M (Gibco 15 630-056), BSA (Sigma A3675). The flux buffer is vacuum-filtered and stored refrigerated for a maximum of 5 days. Before use in the experiment, the buffer is warmed at 37° C. in a waterbath.
The test compounds were diluted in flux buffer and added to 4 wells of a black microplate (4 parallel measurements per compound).
The chemokines are diluted in flux buffer to concentrations that are 4-fold higher than the desired concentrations required for stimulation of the cells (i.e. 2.5 nM for SDF-1α and 0.6 nM for RANTES). The chemokines were added to untreated 96-well Sero well compound plates (International Medical, Sterilin code 611F96). In the negative control well's (baseline monitoring), flux buffer is added instead of chemokine. As a positive control to check for dye loading efficiency, 20 μM digitonin (final concentration) was also included. The agonist plate was incubated in the FLIPR (37° C.) for 15-30 min.
SUP-T1 cells were centrifuged at room temperature (RT) and re-suspended in loading medium (RPMI-1640 containing 2% FBS and 4 μM Fluo-3, AM). The cells were incubate at room temperature for 45 min. then washed twice in flux buffer then incubated in flux buffer at room temperature for 10 min. The cells were centrifuged and re-suspended in flux buffer at a density of 3×10^6 cells per mL. […] The microplate is then gently centrifuged at room temperature. Homogeneous spreading of the cells on the bottom of the microplate wells was then confirmed with a microscope and the microplate was incubated in the FLIPR (37° C.) for 10 min. prior to testing.
The FLIPR settings (camera exposure time and laser power) are adjusted to obtain initial fluorescence values between 8,000 and 10,000 units. After monitoring a 20 second-baseline, the agonist (chemokine) (50 μL) is added by automatic pipettor with black pipette tips. Fluorescence is measured simultaneously in all wells of the microplate every 2 seconds (first 2 min) and thereafter every 6 seconds (additional 2 min). The average ca-flux measured in each set of 4 identical wells (one test compound) was calculated by the FLIPR software.
The compounds of the current invention were tested for inhibition of SDF-1α induced Ca flux in SUP-T1 cells using the method described above.

[2] = tested on: HIV-1 NL4.3 or IIIB; test: Inhibition of HIV-1 (NL4.3 or IIIB) replication in MT-4 cells (MTT); type: cell-based; details: Human immunodeficiency virus 1, IIIB
Method: Compounds were tested for their ability to inhibit HIV-1 replication in MT-4 cells or PBMC's (peripheral blood mononucleocytes) using published procedures (for example, see: Labrosse et al. J. Virol. 1998, 6381-6388; Simmons et al. J. Virol. 1998, 8453-8457; Donzella et al. Nature Medicine 1998, 72-77; Schols et al. J. Exp. Med. 1997, 1383-1388; De Clercq et al. Antiviral Res. 1997, 147-156; and Bridger et al. U.S. patent application Ser. No. 09/111,895). In addition to the above references, experimental methods for performing anti-viral assays can also be found in: Bridger et al. J. Med. Chem. 1995, 38, 366-378; Bridger et al. J. Med. Chem. 1996, 39, 109-119; Bridger et al. U.S. Pat. No. 5,698,546; Bridger et al. U.S. Pat. No. 5,583,131; Bridger et al. U.S. Pat. No. 5,817,807; De Clercq et al. Antimicrob. Agents and Chemother. 1994, 38, 668-674.
1. The HIV-1 strains NL4.3 and IIIB are T-tropic strains that exclusively use CXCR4 as the co-receptor for entry into cells. MT-4 Cells express CXCR4 but not CCR5.
Inhibition of HIV-1 NL4.3 (or IIIB) replication assays were performed as previously described (Bridger et al. J. Med. Chem. 1999, 42, 3971-3981; De Clercq et al. Proc. Natl. Acad. Sci, 1992, 89, 5286-5290; De Clercq et al. Antimicrob. Agents Chemother. 1994, 38, 668-674; Bridger et al. J. Med. Chem. 1995, 38, 366-378). Anti-HIV activity and cytotoxicity measurements were carried out in parallel. They were based on the viability of MT-4 cells that had been infected with HIV in the presence of various concentrations of the test compounds. After the MT-4 cells were allowed to proliferate for 5 days, the number of viable cells was quantified by a tetrazolium-based calorimetric 3-(4,5-dimethylthiazol-2-yl)-2,5-diphenyltetrazolium bromide (MTT) procedure in 96-well microtrays. In all of these assays, viral input (viral multiplicity of infection, MOI) was 0.01, or 100 times the 50% cell culture infective dose (CCID50). The EC50 was defined as the concentration required to protect 50% of the virus-infected cells against viral cytopathicity.

[3] = MT4, read-out: EC50, inhibition of HIV-1 NLA.3 or IIIB replication

SMILES: NCC(=O)N(Cc1ccc(CNCc2ccccn2)cc1)C1CCCc2cccnc21 (stereo not shown) [Example 72, N-[[4-[[(2-pyridinylmethyl)amino]methyl]phenyl]methyl]-N-(5,6,7,8-tetrahydro-8-quinolinyl)-glycinamide]
inhibition at 20 µg/mL [1]: > 20%

SMILES: O=C(c1ccccc1)N1CCC(N(CCc2ccccn2)Cc2cccc(CNCc3ccccn3)c2)CC1 [Example 178, N-[1-benzoyl-4-piperidinyl]-N-[2-(2-pyridinyl)ethyl]-N′-(2-pyridinylmethyl)-1,3-benzenedimethanamine]
inhibition at 20 µM [1]: > 20%

SMILES: O=C(NN1CCC(N(Cc2ccc(CNCc3ccccn3)cc2)Cc2ccccn2)CC1)c1cccnc1 [Example 131, N-[1-(3-pyridinecarboxamido)-4-piperidinyl]-N,N′-bis(2-pyridinylmethyl)-1,4-benzenedimethanamine]
inhibition at 20 µM [1]: > 20%

SMILES: c1ccc(CN2CCC(N(CCc3ccccn3)Cc3ccc(CNCc4ccccn4)cc3)CC2)cc1 [Example 182, N-[1-(benzyl)-4-piperidinyl]-N-[2-(2-pyridinyl)ethyl]-N′-(2-pyridinylmethyl)-1,4-benzenedimethanamine]
inhibition at 20 µM [1]: > 20%

SMILES: Cn1c(CN(CCc2ccccn2)Cc2ccc(CNCc3ccccn3)cc2)nc2ccccc21 [Example 183, N-[1-methylbenzimidazol-2-ylmethyl]-N-[2-(2-pyridinyl)ethyl]-N′-(2-pyridinylmethyl)-1,4-benzenedimethanamine]
inhibition at 20 µM [1]: > 20%

SMILES: CCCCN1CCC(N(CCc2ccccn2)Cc2cccc(CNCc3ccccn3)c2)CC1 [Example 177, N-[1-butyl-4-piperidinyl]-N-[2-(2-pyridinyl)ethyl]-N′-(2-pyridinylmethyl)-1,3-benzenedimethanamine]
inhibition at 20 µM [1]: > 20%

SMILES: c1ccc(CNCc2ccc(CNc3cccc4c3NCCC4)cc2)nc1 [Example 9, N-(2-pyridinylmethyl)-N′-(1,2,3,4-tetrahydro-8-quinolinyl)-1,4-benzenedimethanamine]
inhibition at 20 µg/mL [1]: > 20%

SMILES: Cn1cc(CN(CCc2ccccn2)Cc2cccc(CNCc3ccccn3)c2)c2ccccc21 [Example 180, N-[(1-methyl)benzo[b]pyrrol-3-ylmethyl]-N-[2-(2-pyridinyl)ethyl]-N′-(2-pyridinylmethyl)-1,3-benzenedimethanamine]
inhibition at 20 µM [1]: > 20%

SMILES: Cc1onc(-c2ccccc2Cl)c1C(=O)NN1CCC(N(Cc2ccc(CNCc3ccccn3)cc2)Cc2ccccn2)CC1 [Example 135, N-[1-[3-(2-chlorophenyl)-5-methyl-isoxazol-4-carboxamido]-4-piperidinyl]-N,N′-bis(2-pyridinylmethyl)-1,4-benzenedimethanamine]
inhibition at 20 µM [1]: > 20%

SMILES: c1ccc(-c2[nH]c3ccccc3c2CN(CCc2ccccn2)Cc2ccc(CNCc3ccccn3)cc2)cc1 [Example 184, N-[(2-phenyl)benzo[b]pyrrol-3-ylmethyl]-N-[2-(2-pyridinyl)ethyl]-N′-(2-pyridinylmethyl)-1,4-benzenedimethanamine]
inhibition at 20 µM [1]: > 20%

SMILES: O=C(c1cnccn1)N(Cc1ccc(CNCc2ccccn2)cc1)C1CCCc2cccnc21 (stereo not shown) [Example 75, N-[[4-[[(2-pyridinylmethyl)amino]methyl]phenyl]methyl]-N-(5,6,7,8-tetrahydro-8-quinolinyl)-pyrazinamide]
inhibition at 20 µg/mL [1]: > 20%

SMILES: O=C(NC1CCCCc2cccnc21)c1ccc(CNCc2ccccn2)cc1 (stereo not shown) [Example 82, N-(6,7,8,9-tetrahydro-5H-cyclohepta[b]pyridin-9-yl)-4-[[(2-pyridinylmethyl)amino]methyl]benzamide]
inhibition at 20 µg/mL [1]: > 20%

SMILES: NCCN(Cc1ccc(CNCc2ccccn2)cc1)C1CCCc2cccnc21 (stereo not shown) [Example 31, N-(2-pyridinylmethyl)-N′-(2-aminoethyl)-N′-(5,6,7,8-tetrahydro-8-quinolinyl)-1,4-benzenedimethanamine]
inhibition at 20 µg/mL [1]: > 20%

SMILES: c1ccc(CN(Cc2ccc(CNCc3ccccn3)cc2)C2CCCc3cccnc32)cc1 (stereo not shown) [Example 60, N-(2-pyridinylmethyl)-N′-(phenylmethyl)-N′-(5,6,7,8-tetrahydro-8-quinolinyl)-1,4-benzenedimethanamine]
inhibition at 20 µg/mL [1]: > 20%

SMILES: O=C(c1ccccn1)N(Cc1ccc(CNCc2ccccn2)cc1)C1CCCc2cccnc21 (stereo not shown) [Example 79, N-[[4-[[(2-pyridinylmethyl)amino]methyl]phenyl]methyl]-N-(5,6,7,8-tetrahydro-8-quinolinyl)-picolinamide]
inhibition at 20 µg/mL [1]: > 20%

SMILES: Cc1onc(-c2ccccc2Cl)c1C(=O)N1CCC(N(Cc2cccc(CNCc3ccccn3)c2)Cc2ccccn2)CC1 [Example 98, N,N′-bis(2-pyridinylmethyl)-N-[1-[3-(2-chlorophenyl)-5-methyl-isoxazol-4-oyl]-4-piperidinyl]-1,3-benzenedimethanamine]
inhibition at 20 µM [1]: > 20%

SMILES: CC(C)N1CCC(N(Cc2ccc(CNCc3ccccn3)cc2)Cc2ccccn2)CC1 [Example 147, N-[1-(iso-propyl)-4-piperidinyl]-N,N′-bis(2-pyridinylmethyl)-1,4-benzenedimethanamine]
inhibition at 20 µM [1]: > 20%

SMILES: c1ccc(CN2CCC(N(Cc3ccc(CNCc4ccccn4)cc3)Cc3ccccn3)C2)cc1 (stereo not shown) [Example 145, N-[1-(benzyl)-3-pyrrolidinyl]-N,N′-bis(2-pyridinylmethyl)-1,4-benzenedimethanamine]
inhibition at 20 µM [1]: > 20%

SMILES: c1ccc(CNCc2ccc(CN(Cc3ccc[nH]3)C3CCCc4cccnc43)cc2)nc1 (stereo not shown) [Example 26, N-(2-pyridinylmethyl)-N′-[2-pyrrolylmethyl]-N′-(5,6,7,8-tetrahydro-8-quinolinyl)-1,4-benzenedimethanamine]
inhibition at 20 µg/mL [1]: > 20%

EC50 [2, 3]: < 20 µM
SMILES: c1ccc(CNCc2ccc(CN(Cc3cccnc3)C3CCCCc4cccnc43)cc2)nc1 (stereo not shown) [Example 113, N-(3-pyridinylmethyl)-N′-(2-pyridinylmethyl)-N-(6,7,8,9-tetrahydro-5H-cyclohepta[b]pyridin-9-yl)-1,4-benzenedimethanamine]

EC50 [2, 3]: < 20 µM
SMILES: Fc1cccc(F)c1CN(Cc1ccc(CNCc2ccccn2)cc1)C1CCCCc2cccnc21 (stereo not shown) [Example 124, N-[(2,6-difluorophenyl)methyl]-N′-(2-pyridinylmethyl)-N-(6,7,8,9-tetrahydro-5H-cyclohepta[b]pyridin-9-yl)-1,4-benzenedimethanamine]

EC50 ([2]; MT4, read-out: EC50, inhibition of HIV-1 NL4.3 or IIIB replication): < 20 µg/mL
SMILES: c1ccc(CNCc2ccc(CNC3CCCc4ccccc43)cc2)nc1 (stereo not shown) [Example 4, N-(2-pyridinylmethyl)-N′-(1,2,3,4-tetrahydro-1-naphthalenyl)-1,4-benzenedimethanamine]
